Legend:
RBD = format: in vivo; details: cynomolgus monkeys, subcutaneous immunization with adjuvant, 14 days after the second immunization; FIG. 8
binding of RBD to ACE2 = test: competitive ELISA: ability of antiserum to block the binding of RBD and ACE2; format: in vivo, cynomolgus monkeys
human ACE2 = human ACE2 (Homo sapiens, UniProt Q9BYF1); test: in vitro binding of biotin-labeled LP2 to ACE2 by ELISA; details: biotin-labeled polypeptide 1, 0.5 and 0.25 µg/mL, ACE2-coated plate; FIG. 10
Experimental: In this example, LP2 was labeled with biotin, and its binding ability with human ACE2 was detected by ELISA.
The specific determination method is as follows: the ELISA plate was coated overnight with 10ug/mL ACE2 and blocked, then biotin-labeled polypeptides of different concentrations (1, 0.5 and 0.25 µg/mL) were added. After incubated at 37° C. for 1.5 hours, HRP-Streptavidin A diluted in 1:5000 was added, and incubated at 37° C. for 1 hour. The plate was washed, then TMB was added for color development, and the plate was read at 450 nm wavelength after termination.

Sequence of human ACE2 (Q9BYF1 18-805): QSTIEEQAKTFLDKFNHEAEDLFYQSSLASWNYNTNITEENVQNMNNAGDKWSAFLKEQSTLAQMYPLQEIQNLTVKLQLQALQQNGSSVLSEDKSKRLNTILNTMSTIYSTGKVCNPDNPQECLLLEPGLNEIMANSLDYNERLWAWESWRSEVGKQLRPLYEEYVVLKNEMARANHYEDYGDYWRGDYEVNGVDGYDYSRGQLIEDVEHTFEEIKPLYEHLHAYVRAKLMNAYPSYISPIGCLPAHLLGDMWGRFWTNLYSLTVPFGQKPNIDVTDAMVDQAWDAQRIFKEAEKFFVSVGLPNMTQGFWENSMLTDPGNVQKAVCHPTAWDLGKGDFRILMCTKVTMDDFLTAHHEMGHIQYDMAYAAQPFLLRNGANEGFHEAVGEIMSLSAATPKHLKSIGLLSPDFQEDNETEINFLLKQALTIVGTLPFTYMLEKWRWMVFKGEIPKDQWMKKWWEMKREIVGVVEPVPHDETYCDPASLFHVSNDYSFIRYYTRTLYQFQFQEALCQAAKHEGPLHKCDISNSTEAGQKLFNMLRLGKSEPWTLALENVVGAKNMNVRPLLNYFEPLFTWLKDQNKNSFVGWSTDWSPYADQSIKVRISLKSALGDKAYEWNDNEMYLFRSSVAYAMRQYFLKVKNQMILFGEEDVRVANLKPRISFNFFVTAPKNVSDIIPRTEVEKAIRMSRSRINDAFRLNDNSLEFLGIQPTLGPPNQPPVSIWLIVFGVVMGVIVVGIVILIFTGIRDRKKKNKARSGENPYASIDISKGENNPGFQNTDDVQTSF

Sequence: AKFVAAWTLKAAAGGGGYGFQPTNGVGYQPGGGGNYLYRLFRKSNLKPF [LP2]
- titer of antibodies against RBD (RBD): higher titer of antibodies against RBD was produced
- blocking effect of antiserum on the binding of RBD to ACE2 (binding of RBD to ACE2; antiserum at 8-64 times of dilution): significant blocking effect
- inhibition rate (binding of RBD to ACE2; antiserum at 8 times of dilution): more than 60%
- inhibition rate (binding of RBD to ACE2; antiserum at 16 times of dilution): more than 40%
- binding ability with ACE2 (human ACE2): strong binding ability

Reference: patent US20230338510A1, “NOVEL C[…] EPITOPE P[…] AND USE THEREOF” (SHANGHAI INSTITUTE OF MATERIA MEDICA, CHINESE ACADEMY OF …, priority 2020, published 2023)
